Results taken from patent US20120136005A1, “E[…] THE TREATMENT OF ANXIETY” (MERZ PHARMA GmbH & CO. KGaA, priority 2009, published 2012).

Experiments:
[1] = test system: unilaterally 6-OHDA-lesioned rats; assay: L-DOPA induced dyskinesia (AIM scores) in 6-OHDA-lesioned rat model of Parkinson's disease; format: in vivo, Sprague Dawley rats; settings: eltoprazine hydrochloride 0.08, 0.3, 1.25 and 5 mg/kg s.c.; after 21 days of L-DOPA; dose-dependent; FIG. 2
Procedure: Male Sprague Dawley rats (Elevage Janvier, Le Genest Saint Isle, France) weighing between 220 and 250 g at the beginning of the study are used in these experiments. They are housed under a 12 h light/dark cycle with free access to standard pelleted food and tap water. Animal treatment and experimental procedures are approved by local ethical committees (Regierungspräsidium Darmstadt; Germany).
Dopamine-denervating lesions are performed on rats anaesthetized with a 5:1 mixture of ketamine and xylazine (1 ml/kg, i.p.). […] The animals' turning behaviour is recorded in an automated rotometer (TSE Rotameter System, TSE-Systems GmbH, Bad Homburg, Germany) over a 90 min period after the intraperitoneal (i.p.) injection of 2.5 mg/kg dexamphetamine sulphate dissolved in saline. […]
In order to evaluate the severity of LID, AIMs are recorded every second day as described by Cenci et al. (1998). […] Each rat is scored on a severity scale from 0 to 4 based on its frequency and persistence (1=occasional; 2=frequent; 3=continuous but interrupted by sensory distraction; 4=continuous, severe and not interrupted by sensory distraction). […]

[2] = test system: Sprague-Dawley rats; assay: Open field locomotor activity; format: in vivo
Procedure: For contextual fear conditioning, open field, fear potentiated startle and elevate plus maze, experimentally naive adult male Sprague-Dawley rats (250-300 g; Janvier, France) were housed in groups of four per cage. Colony room temperature and humidity were maintained respectively at 20±1° C. and 60±3%. Food and water were available ad libitum and the animals were kept under an alternating 12 h/12 h day-night cycle (lights on at 07.00) for at least 6 days before the experiments were started. All experiments were conducted during the light period of the day-night cycle. For the Vogel test, male experimentally naive Wistar rats (180-220 g, State Breeding Farm “Rappolovo”, St. Petersburg, Russia; N=109) were used. Each animal was used only once.
Eltoprazine hydrochloride was dissolved in sterile water. […]
Locomotor activity was measured in four perspex boxes (ENV-515-16, 43.2 cm×43.2 cm×30 cm) placed in a noise-proof chamber equipped with ventilator and a source of white light (5.6 W) placed 55 cm above floor. […] 4 arrays of 16 infrared photo beams placed 3 cm above the floor measured horizontal activity. […] The output from the counters was integrated and analysed on-line by an PC computer. […]
Total distance travelled during the 60 min was taken for statistical analysis. Data are analysed by one-way ANOVA followed by Dunnett's test.

Q: What does the source list for `c1cc2c(c(N3CCNCC3)c1)OCCO2` [eltoprazine, 1-(2,3-dihydro-1,4-benzodioxin-5-yl)piperazine]?
A: effect on AIM scores [1]: significantly reverses; total distance travelled in the open field ([2]; 1.25 mg/kg s.c.): significantly increased; locomotor activity in the open field at anxiolytic doses ([2]; acute s.c., 60 min before the test, FIG. 5): not related to non-specific increase in locomotor activation
